What was measured:
Format in all cases: in vivo
[1] = tested on: Amaranthus retoflexus (AMARE); assay: B1 Post-Emergence Efficacy - Test 1; conditions: 1000 g/ha, after 13 days, five point scale
Outline: (§1)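 Post-emergence spray, 1000 g/ha, acetone/water 50:50 + 0.5% Tween 20, on plants 8 d after sowing in soil pots. Glasshouse 24/16° C., 14 h light, 65% humidity, watered twice daily. % damage at 13 d, five-point score.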

[2] = tested on: Echinochloa crus-galli (ECHCG); assay: B1 Post-Emergence Efficacy - Test 1; conditions: 1000 g/ha, after 13 days, five point scale
Outline: as §1

[3] = tested on: Ipomoea hederacea (IPOHE); assay: B1 Post-Emergence Efficacy - Test 1; conditions: 1000 g/ha, after 13 days, five point scale
Outline: as §1

Lolium perenne (LOLPE) = assay: B1 Post-Emergence Efficacy - Test 1; conditions: 1000 g/ha, after 13 days, five point scale
Outline: as §1

Setaria faberi (SETFA) [4] = assay: B1 Post-Emergence Efficacy - Test 1; conditions: 1000 g/ha, after 13 days, five point scale
Outline: as §1

Solanum nigrum (SOLNI) = assay: B1 Post-Emergence Efficacy - Test 1; conditions: 1000 g/ha, after 13 days, five point scale
Outline: as §1

[5] = tested on: Amaranthus retroflexus (AMARE); assay: B2 Post-Emergence Efficacy - Test 2; conditions: 15 days after application, 0-100 scale
Procedure: (§2) Seeds of a variety of test species (see Table B1) were sown in standard soil in pots. After cultivation for 12 days (post-emergence) under controlled conditions in a glasshouse (at 24/18° C. or 20/16° C., at day/night; 16 hours light; 65% humidity), the plants were sprayed with an aqueous spray solution derived from the formulation of the technical active ingredient dissolved in IF50 (see Table B2 for composition) and adjuvant (Genapol X080) was added to the spray solution at a rate of 0.2% v/v.
(§3) After application, the test plants were grown in a glasshouse under controlled conditions (as above) and watered twice daily. Herbicidal activity was evaluated 15 days after application on a 0-100 scale. The results, where 0=no damage to test plant and 100=total kill of test plant are shown below in Tables 8 to 11.

Avena fatua (AVEFA) = assay: B2 Post-Emergence Efficacy - Test 2; conditions: 15 days after application, 0-100 scale
Procedure: as §2, §3

[6] = tested on: Brachiaria plantaginea (BRAPL); assay: B2 Post-Emergence Efficacy - Test 2; conditions: 15 days after application, 0=no damage, 100=total kill
Procedure: as §2, §3

Brassica napus (BRSNN) = assay: B2 Post-Emergence Efficacy - Test 2; conditions: 15 days after application, 0-100 scale
Procedure: as §2, §3

Bromus tectorum (BROTE) = assay: B2 Post-Emergence Efficacy - Test 2; conditions: 15 days after application, 0-100 scale
Procedure: as §2, §3

[7] = tested on: Chenopodium album (CHEAL); assay: B2 Post-Emergence Efficacy - Test 2; conditions: 15 days after application, 0-100 scale
Procedure: as §2, §3

Eleisine indica (ELEIN) = assay: B2 Post-Emergence Efficacy - Test 2; conditions: 15 days after application, 0=no damage, 100=total kill
Procedure: as §2, §3

Hordeum vulgare (HORVW) = assay: B2 Post-Emergence Efficacy - Test 2; conditions: 15 days after application, 0-100 scale
Procedure: as §2, §3

Kochia scoparia (KSHSC) = assay: B2 Post-Emergence Efficacy - Test 2; conditions: 15 days after application, 0-100 scale
Procedure: as §2, §3

Setaria faberi (SETFA) [8] = assay: B2 Post-Emergence Efficacy - Test 2; conditions: 15 days after application, 0=no damage, 100=total kill
Procedure: as §2, §3

Stellaria media (STEME) = assay: B2 Post-Emergence Efficacy - Test 2; conditions: 15 days after application, 0-100 scale
Procedure: as §2, §3

Zea mays (ZEAMX) = assay: B2 Post-Emergence Efficacy - Test 2; conditions: 15 days after application; for Herbicidal activity ZEAMX: 0-100 scale; for Herbicidal activity on a 0-100 scale, ZEAMX: 0=no damage, 100=total kill
Procedure: as §2, §3

For `Cc1nn(C)c(=O)c(-c2c(F)ccc(Cl)c2CCc2ccc(F)cc2)c1O` [Compound 1.048, 4-[3-chloro-6-fluoro-2-[2-(4-fluorophenyl)ethyl]phenyl]-5-hydroxy-2,6-dimethyl-pyridazin-3-one], the “percentage damage caused to the plant, AMARE” value [1] was 5 (5=80-100%), the “percentage damage caused to the plant, ECHCG” value [2] was 5 (5=80-100%) and the “percentage damage caused to the plant, IPOHE” value [3] was 5 (5=80-100%). For the same compound, the “percentage damage caused to the plant, LOLPE” value (Lolium perenne (LOLPE)) was 5 (5=80-100%), the “percentage damage caused to the plant, SETFA” value (Setaria faberi (SETFA) [4]) was 5 (5=80-100%) and the “percentage damage caused to the plant, SOLNI” value (Solanum nigrum (SOLNI)) was 5 (5=80-100%). For the same compound, the “Herbicidal activity AMARE” value ([5]; 15 g/Ha) was 60, the “Herbicidal activity AMARE” value ([5]; 30 g/Ha) was 80 and the “Herbicidal activity AMARE” value ([5]; 60 g/Ha) was 90. For the same compound, the “Herbicidal activity AMARE” value ([5]; 125 g/Ha) was 90, the “Herbicidal activity AMARE” value ([5]; 250 g/Ha) was 100 and the “Herbicidal activity AMARE” value ([5]; 500 g/Ha) was 100. The “Herbicidal activity AVEFA” value (Avena fatua (AVEFA); 15 g/Ha) was 10, the “Herbicidal activity AVEFA” value (Avena fatua (AVEFA); 30 g/Ha) was 30 and the “Herbicidal activity AVEFA” value (Avena fatua (AVEFA); 60 g/Ha) was 60. For the same compound, the “Herbicidal activity AVEFA” value (Avena fatua (AVEFA); 125 g/Ha) was 80, the “Herbicidal activity AVEFA” value (Avena fatua (AVEFA); 250 g/Ha) was 90 and the “Herbicidal activity AVEFA” value (Avena fatua (AVEFA); 500 g/Ha) was 90. For the same compound, the “Herbicidal activity on a 0-100 scale, BRAPL” value (shortened to “Herbicidal activity … BRAPL”) ([6]; 15 g/Ha) was 20, the “Herbicidal activity … BRAPL” value ([6]; 30 g/Ha) was 60 and the “Herbicidal activity … BRAPL” value ([6]; 60 g/Ha) was 80. For the same compound, the “Herbicidal activity … BRAPL” value ([6]; 125 g/Ha) was 80, the “Herbicidal activity … BRAPL” value ([6]; 250 g/Ha) was 90 and the “Herbicidal activity … BRAPL” value ([6]; 500 g/Ha) was 100. For the same compound, the “Herbicidal activity BRSNN” value (Brassica napus (BRSNN); 15 g/Ha) was 90, the “Herbicidal activity BRSNN” value (Brassica napus (BRSNN); 30 g/Ha) was 90 and the “Herbicidal activity BRSNN” value (Brassica napus (BRSNN); 60 g/Ha) was 90. The “Herbicidal activity BRSNN” value (Brassica napus (BRSNN); 125 g/Ha) was 90, the “Herbicidal activity BRSNN” value (Brassica napus (BRSNN); 250 g/Ha) was 90 and the “Herbicidal activity BRSNN” value (Brassica napus (BRSNN); 500 g/Ha) was 90. For the same compound, the “Herbicidal activity BROTE” value (Bromus tectorum (BROTE); 15 g/Ha) was 0, the “Herbicidal activity BROTE” value (Bromus tectorum (BROTE); 30 g/Ha) was 10 and the “Herbicidal activity BROTE” value (Bromus tectorum (BROTE); 60 g/Ha) was 20. For the same compound, the “Herbicidal activity BROTE” value (Bromus tectorum (BROTE); 125 g/Ha) was 50, the “Herbicidal activity BROTE” value (Bromus tectorum (BROTE); 250 g/Ha) was 60 and the “Herbicidal activity BROTE” value (Bromus tectorum (BROTE); 500 g/Ha) was 70. For the same compound, the “Herbicidal activity CHEAL” value ([7]; 125 g/Ha) was 70, the “Herbicidal activity CHEAL” value ([7]; 250 g/Ha) was 90 and the “Herbicidal activity CHEAL” value ([7]; 500 g/Ha) was 100. For the same compound, the “Herbicidal activity on a 0-100 scale, ELEIN” value (from here on “Herbicidal activity … ELEIN”) (Eleisine indica (ELEIN); 15 g/Ha) was 0, the “Herbicidal activity … ELEIN” value (Eleisine indica (ELEIN); 30 g/Ha) was 50 and the “Herbicidal activity … ELEIN” value (Eleisine indica (ELEIN); 60 g/Ha) was 60. For the same compound, the “Herbicidal activity … ELEIN” value (Eleisine indica (ELEIN); 125 g/Ha) was 60, the “Herbicidal activity … ELEIN” value (Eleisine indica (ELEIN); 250 g/Ha) was 80 and the “Herbicidal activity … ELEIN” value (Eleisine indica (ELEIN); 500 g/Ha) was 80. For the same compound, the “Herbicidal activity HORVW” value (Hordeum vulgare (HORVW); 15 g/Ha) was 10, the “Herbicidal activity HORVW” value (Hordeum vulgare (HORVW); 30 g/Ha) was 10 and the “Herbicidal activity HORVW” value (Hordeum vulgare (HORVW); 60 g/Ha) was 10. For the same compound, the “Herbicidal activity HORVW” value (Hordeum vulgare (HORVW); 125 g/Ha) was 40, the “Herbicidal activity HORVW” value (Hordeum vulgare (HORVW); 250 g/Ha) was 40 and the “Herbicidal activity HORVW” value (Hordeum vulgare (HORVW); 500 g/Ha) was 80. For the same compound, the “Herbicidal activity KCHSC” value (Kochia scoparia (KSHSC); 15 g/Ha) was 0, the “Herbicidal activity KCHSC” value (Kochia scoparia (KSHSC); 30 g/Ha) was 0 and the “Herbicidal activity KCHSC” value (Kochia scoparia (KSHSC); 60 g/Ha) was 10. The “Herbicidal activity KCHSC” value (Kochia scoparia (KSHSC); 125 g/Ha) was 20, the “Herbicidal activity KCHSC” value (Kochia scoparia (KSHSC); 250 g/Ha) was 50 and the “Herbicidal activity KCHSC” value (Kochia scoparia (KSHSC); 500 g/Ha) was 80. The “Herbicidal activity on a 0-100 scale, SETFA” value (“Herbicidal activity … SETFA” for short) (Setaria faberi (SETFA) [8]; 15 g/Ha) was 0, the “Herbicidal activity … SETFA” value (Setaria faberi (SETFA) [8]; 30 g/Ha) was 40 and the “Herbicidal activity … SETFA” value (Setaria faberi (SETFA) [8]; 60 g/Ha) was 40. For the same compound, the “Herbicidal activity … SETFA” value (Setaria faberi (SETFA) [8]; 125 g/Ha) was 70, the “Herbicidal activity … SETFA” value (Setaria faberi (SETFA) [8]; 250 g/Ha) was 80 and the “Herbicidal activity … SETFA” value (Setaria faberi (SETFA) [8]; 500 g/Ha) was 100. The “Herbicidal activity STEME” value (Stellaria media (STEME); 15 g/Ha) was 90, the “Herbicidal activity STEME” value (Stellaria media (STEME); 30 g/Ha) was 90 and the “Herbicidal activity STEME” value (Stellaria media (STEME); 60 g/Ha) was 90. For the same compound, the “Herbicidal activity STEME” value (Stellaria media (STEME); 125 g/Ha) was 100, the “Herbicidal activity STEME” value (Stellaria media (STEME); 250 g/Ha) was 100 and the “Herbicidal activity STEME” value (Stellaria media (STEME); 500 g/Ha) was 100. The “Herbicidal activity ZEAMX” value (Zea mays (ZEAMX); 15 g/Ha) was 0, the “Herbicidal activity on a 0-100 scale, ZEAMX” value (Zea mays (ZEAMX); 15 g/Ha) was 0 and the “Herbicidal activity ZEAMX” value (Zea mays (ZEAMX); 30 g/Ha) was 10. The “Herbicidal activity on a 0-100 scale, ZEAMX” value (Zea mays (ZEAMX); 30 g/Ha) was 10, the “Herbicidal activity ZEAMX” value (Zea mays (ZEAMX); 60 g/Ha) was 50 and the “Herbicidal activity on a 0-100 scale, ZEAMX” value (Zea mays (ZEAMX); 60 g/Ha) was 50. For the same compound, the “Herbicidal activity ZEAMX” value (Zea mays (ZEAMX); 125 g/Ha) was 50, the “Herbicidal activity on a 0-100 scale, ZEAMX” value (Zea mays (ZEAMX); 125 g/Ha) was 50 and the “Herbicidal activity ZEAMX” value (Zea mays (ZEAMX); 250 g/Ha) was 70. For the same compound, the “Herbicidal activity on a 0-100 scale, ZEAMX” value (Zea mays (ZEAMX); 250 g/Ha) was 70, the “Herbicidal activity ZEAMX” value (Zea mays (ZEAMX); 500 g/Ha) was 100 and the “Herbicidal activity on a 0-100 scale, ZEAMX” value (Zea mays (ZEAMX); 500 g/Ha) was 100.

Source: patent US20230301300A1, “HERBICIDAL COMPOSITIONS” (SYNGENTA CROP PROTECTION AG, priority 2020, published 2023)
